# From patent publication US20230399332A1, “IMIDAZO[1,2-a]PYRAZINE OR PYRAZOLO[1,5-a]PYRIMIDINE DERIVATIVE AND USE THEREOF” (TENCENT TECHNOLOGY (SHENZHEN) COMPANY LIMITED, priority 2022, published 2023)
# Target: LSD1 (Homo sapiens (Human), UniProt O60341)
# Assay: LSD1 inhibitory activity on an enzyme level, AlphaScreen method
# Format: biochemical
# Conditions: in vitro
# Method: This experiment was carried out to test the in vitro inhibitory activity of the compounds of the present disclosure against LSD1.
# Experimental steps and a method: In this experiment, the in vitro inhibitory activity of the compounds of the present disclosure against LSD1 on an enzyme level was tested by using an AlphaScreen method. The experimental steps are described as follows: • a) preparation of a 1× buffer: • preparing a 1× buffer (improved trihydroxymethylaminomethane buffer); • b) continuous dilution of the compounds: • transferring the compounds of the present disclosure to a porous plate by using Echo at a final DMSO concentration of 1%; • c) preparation of an enzyme solution: • preparing an enzyme solution in the 1× buffer; • d) preparation of a substrate solution: • adding polypeptide to the 1× buffer to prepare a substrate solution; • e) transferring 5 μL of the enzyme solution or the 1× buffer to the porous plate; • f) conducting incubation at room temperature for 15 min; • g) adding 5 μL of the substrate solution to each well to induce a reaction; • h) conducting incubation at room temperature for 40 min; • i) preparing a 1× Alphalisa buffer; • j) preparation of a 1× Alphalisa buffer solution of receptors and donors: • adding 15 μL of a receptor and donor solution in dark light environment, and conducting incubation at room temperature for 60 min; • k) reading an endpoint in an EnSpire Alpha mode; and • l) data processing: • calculating an inhibitory value according to an equation 1:
# Inh %=(Max−Signal)/(Max−Min)*100; and equation 1: • calculating an IC50 value by using XL-Fit according to an equation 2:
# Y=Bottom+(Top-Bottom)/(1+(IC50/X)[…]), equation 2: • where Y indicates the inhibitory rate, and X indicates the concentration of a compound.
row,Compound,IC50
1,"4-(7-(4-aminopiperidin-1-yl)-3-(3-fluoro-4-methoxyphenyl)imidazo [1,5-a]pyrazin-2-yl)-2-fluorobenzonitrile [Compound 3]",2.6 nM
2,"COc1ccc(-c2c(-c3ccc(C#N)c(F)c3)nc3c(N[C@@H]4CC[C@H](N)C4)nccn23)cc1F (relative stereo) [Compound 14, cis-4-(8-(((1R,3S)-3-aminocyclopentyl)amino)-3-(3-fluoro-4-methoxyphenyl)imidazo[1,2-a]pyrazin-2-yl)-2-fluorobenzonitrile]",37 nM
3,"COc1ccc(-c2c(-c3ccc(C#N)c(F)c3)nc3c(N[C@@H]4CC[C@@H](N)C4)nccn23)cc1F (relative stereo) [Compound 15, trans-4-(8-(((1R,3R)-3-aminocyclopentyl)amino)-3-(3-fluoro-4-methoxyphenyl)imidazo[1,2-a]pyrazin-2-yl)-2-fluorobenzonitrile]",11 nM
4,"COc1ccc(-c2c(-c3ccc(C#N)c(F)c3)nc3c(N4CCC(N)CC4)nccn23)cc1F [Compound 1, 4-(8-(4-aminopiperidin-1-yl)-3-(3-fluoro-4-methoxyphenyl)imidazo [1,2-a]pyrazin-2-yl)-2-fluorobenzonitrile]",7.4 nM
5,"COc1ccc(-c2c(-c3ccc(C#N)c(F)c3)nc3c(N4CCC[C@@H](N)C4)nccn23)cc1F [Compound 2, (R)-4-(8-(3-aminopiperidin-1-yl)-3-(3-fluoro-4-methoxyphenyl)imidazo [1,2-a]pyrazin-2-yl)-2-fluorobenzonitrile]",1.3 nM
6,"Cn1ncc2cc(-c3c(-c4ccc(C#N)c(F)c4)nc4c(N5CCC[C@@H](N)C5)nccn34)ccc21 [Compound 5, (R)-4-(8-(3-aminopiperidin-1-yl)-3-(1-methyll-1H-indazol-5-yl)imidazo [1,2-a]pyrazin-2-yl)-2-fluorobenzonitrile]",2.3 nM
7,"COc1ccc(-c2c(-c3ccc(C#N)c(F)c3)nc3c(NCC4CCCN4)nccn23)cc1F (centres unmarked) [Compound 6, 2-fluoro-4-(3-(3-fluoro-4-methoxyphenyl)-8-((pyrrolidin-2-ylmethyl)amino)imidazo[1,2-a]pyrazin-2-yl)benzonitrile]",45 nM
8,"COc1ccc(-c2c(-c3ccc(C#N)c(F)c3)nc3c(NC4CCCNC4)nccn23)cc1F (centres unmarked) [Compound 7, 2-fluoro-4-(3-(3-fluoro-4-methoxyphenyl)-8-(piperidin-3-ylamino)imidazo[1,2-a]pyrazin-2-yl)benzonitrile]",12 nM
9,"Cn1ncc2cc(-c3c(-c4ccc(C#N)c(F)c4)nc4c(N5CCC[C@@H](N)C5)nccn34)ccc21 [Compound 8, (R)-4-(8-(3-aminopiperidin-1-yl)-3-(1-methyll-1H-indazol-5-yl)imidazo [1,2-a]pyrazin-2-yl)-2-fluorobenzonitrile]",1.7 nM
10,"CN1CCOc2cc(-c3c(-c4ccc(C#N)c(F)c4)nc4c(N5CCC[C@@H](N)C5)nccn34)ccc21 [Compound 9, (R)-4-(8-(3-aminopiperidin-1-yl)-3-(4-methyll-3,4-dihydro-2H-benzo [b][1,4]oxazin-7-yl)imidazo[1,2-a]pyrazin-2-yl)-2-fluorobenzonitrile]",0.88 nM
11,"N#Cc1ccc(-c2nc3c(N4CCC[C@@H](N)C4)nccn3c2-c2cnn(CC(F)(F)F)c2)cc1F [Compound 10, (R)-4-(8-(3-aminopiperidin-1-yl)-3-(1-(2,2,2-trifluoroethyl)-1H-pyrazol-4-yl)imidazo[1,2-a]pyrazin-2-yl)-2-fluorobenzonitrile]",7.5 nM
12,"CC(C)(O)Cn1ncc2cc(-c3c(-c4ccc(C#N)c(F)c4)nc4c(N5CCC[C@@H](N)C5)nccn34)ccc21 [Compound 11, (R)-4-(8-(3-aminopiperidin-1-yl)-3-(1-(2-hydroxy-2-methylpropyl)-1H-indazol-5-yl)imidazo[1,2-a]pyrazin-2-yl)-2-fluorobenzonitrile]",0.97 nM
13,"COc1ccc(-c2c(-c3ccc(C#N)c(F)c3)nc3c(NCC4CCNC4)nccn23)cc1F (centres unmarked) [Compound 13, 2-fluoro-4-(3-(3-fluoro-4-methoxyphenyl)-8-((pyrrolidin-3-ylmethyl)amino)imidazo[1,2-a]pyrazin-2-yl)benzonitrile]",56 nM
14,"COc1ccc(-c2c(-c3ccc(C#N)c(F)c3)nc3c(NC4CCNC4)nccn23)cc1F (centres unmarked) [Compound 16, 2-fluoro-4-(3-(3-fluoro-4-methoxyphenyl)-8-(pyrrolidin-3-ylamino)imidazo[1,2-a]pyrazin-2-yl)benzonitrile]",15 nM
15,"Cn1cc2cc(-c3c(-c4ccc(C#N)c(F)c4)nc4c(N5CCC[C@@H](N)C5)nccn34)ccc2n1 [Compound 17, (R)-4-(8-(3-aminopiperidin-1-yl)-3-(2-methyll-2H-indazol-5-yl)imidazo [1,2-a]pyrazin-2-yl)-2-fluorobenzonitrile]",6.3 nM
16,"CC(C)(O)Cn1ncc2cc(-c3c(-c4ccc(C#N)c(F)c4)nc4c(N5CCC[C@@H](N)C5)nccn34)c(F)cc21 [Compound 19, (R)-4-(8-(3-aminopiperidin-1-yl)-3-(6-fluoro-1-(2-hydroxy-2-methylpropyl)-1H-indazol-5-yl)imidazo[1,2-a]pyrazin-2-yl)-2-fluorobenzonitrile]",0.71 nM
17,"CC(C)(O)Cn1cc2cc(-c3c(-c4ccc(C#N)c(F)c4)nc4c(N5CCC[C@@H](N)C5)nccn34)c(F)cc2n1 [Compound 21, (R)-4-(8-(3-aminopiperidin-1-yl)-3-(6-fluoro-2-(2-hydroxy-2-methylpropyl)-2H-indazol-5-yl)imidazo[1,2-a]pyrazin-2-yl)-2-fluorobenzonitrile]",2.3 nM
18,"CC(C)(O)Cc1ccc(-c2c(-c3ccc(C#N)c(F)c3)nc3c(N4CCC[C@@H](N)C4)nccn23)c(F)c1 [Compound 22, (R)-4-(8-(3-aminopiperidin-1-yl)-3-(2-fluoro-4-(2-hydroxy-2-methylpropyl)phenyl)imidazo[1,2-a]pyrazin-2-yl)-2-fluorobenzonitrile]",2.5 nM
19,"CC(C)(O)Cn1nnc2cc(-c3c(-c4ccc(C#N)c(F)c4)nc4c(N5CCC[C@H](N)C5)nccn34)c(F)cc21 [Compound 23, (S)-4-(8-(3-aminopiperidin-1-yl)-3-(6-fluoro-1-(2-hydroxy-2-methylpropyl)-1H-benzo[d][1,2,3]triazol-5-yl)imidazo[1,2-a]pyrazin-2-yl)-2-fluorobenzonitrile]",4.4 nM
20,"CCC(O)(CC)Cn1nnc2cc(-c3c(-c4ccc(C#N)c(F)c4)nc4c(N5CCC[C@H](N)C5)nccn34)c(F)cc21 [Compound 26, (S)-4-(8-(3-aminopiperidin-1-yl)-3-(1-(2-ethyl-2-hydroxybutyl)-6-fluoro-1H-benzo[d][1,2,3]triazol-5-yl)imidazo[1,2-a]pyrazin-2-yl)-2-fluorobenzonitrile]",0.7 nM
21,"CC(C)(O)Cn1nnc2cc(-c3c(-c4ccc(C#N)c(F)c4)nc4c(N5[C@@H]6CC[C@H]5C[C@@H](NC(=O)OC(C)(C)C)C6)nccn34)c(F)cc21 [Compound 28, ((1R,3r,5S)-8-(2-(4-cyano-3-fluorophenyl)-3-(6-fluoro-1-(2-hydroxy-2-methylpropyl)-1H-benzo[d][1,2,3]triazol-5-yl)imidazo[1,2-a]pyrazin-8-yl)-8-azabicyclo[3.2.1]octane-3-yl)carbamate]",5.5 nM
22,"Cn1nnc2cc(-c3c(-c4ccc(C#N)c(F)c4)nc4c(N5CCC[C@@H](N)C5)nccn34)c(F)cc21 [Compound 30, (R)-4-(8-(3-aminopiperidin-1-yl)-3-(6-fluoro-1-methyl-1H-benzo[d][1,2,3]triazol-5-yl)imidazo[1,2-a]pyrazin-2-yl)-2-fluorobenzonitrile]",1 nM
23,"(R)4-(7-(3-aminopiperidin-1-yl)-3-(3-fluoro-4-methoxyphenyl)imidazo [1,5-a]pyrazin-2-yl)-2-fluorobenzonitrile [Compound 4]",1 nM
